Data on 20 molecules can be found in US10745382B2 (BRISTOL-MYERS SQUIBB COMPANY, priority 2015, dated 2020).

Structures are written as SMILES.

The target of this test is T1, PD-1/PD-L1 (Homo sapiens, UniProt Q9NZQ7).
T1 construct: made in house; host or cells: HEK293T
T1 sequence (Q9NZQ7 with tags, fused parts or gaps): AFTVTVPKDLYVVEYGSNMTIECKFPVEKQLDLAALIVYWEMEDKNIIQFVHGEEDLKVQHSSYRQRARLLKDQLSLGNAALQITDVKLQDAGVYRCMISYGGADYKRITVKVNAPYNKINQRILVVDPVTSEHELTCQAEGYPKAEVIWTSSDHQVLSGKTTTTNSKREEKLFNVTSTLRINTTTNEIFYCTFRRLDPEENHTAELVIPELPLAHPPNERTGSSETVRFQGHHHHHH
Put plainly: PD-1/PD-L1 Homogenous Time-Resolved Fluorescence (HTRF) binding assay. The settings on record: PD-L1-His 10 nM, PD-1-Ig 20 nM; value given as range class; read-out: Range or IC50. The essentials:
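Read-out is time-resolved FRET between europium cryptate-labelled anti-Ig (1 nM final) and APC-labelled anti-His (20 nM final), both dispensed onto the binding mix. Assay buffer: dPBS containing 0.1% bovine serum albumin and 0.05% Tween-20.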
Background: TR-FRET usually uses a lanthanide donor and a delayed reading to cut background.
One may read the IC50 as the concentration at which inhibition is half-maximal. Turning to `Cc1c(COc2cc(OCc3cncc(C#N)c3)c(CNC[C@@H](O)CC(=O)O)cc2Cl)cccc1-c1cccc(OCCCN2CC[C@@H](O)C2)c1` [Example 1014, (S)-4-((5-chloro-2-((5-cyanopyridin-3-yl)methoxy)-4-((3′-(3-((R)-3-hydroxypyrrolidin-1-yl)propoxy)-2-methyl-[1,1′-biphenyl]-3-yl)methoxy)benzyl)amino)-3-hydroxybutanoic Acid], the IC50 fell in the range of 0.00021 to 0.01 µM.
Regarding `CC(=O)NCCNCc1cc(Cl)c(OCc2cccc(-c3cccc(OCCCN4CC[C@@H](O)C4)c3)c2C)cc1OCc1cncc(C#N)c1` [Example 1015, (R)—N-(2-((5-chloro-2-((5-cyanopyridin-3-yl)methoxy)-4-((3′-(3-(3-hydroxypyrrolidin-1-yl)propoxy)-2-methyl-[1,1′-biphenyl]-3-yl)methoxy)benzyl)amino)ethyl)acetamide], the IC50 was 0.00021 to 0.01 µM.
Turning to `Cc1c(COc2cc(OCc3cncc(C#N)c3)c(CN[C@H](CO)C(=O)O)cc2Cl)cccc1-c1cccc(OCCCN2CC[C@@H](O)C2)c1` [Example 1016, (R)-2-((5-chloro-2-((5-cyanopyridin-3-yl)methoxy)-4-((3′-(3-((R)-3-hydroxypyrrolidin-1-yl)propoxy)-2-methyl-[1,1′-biphenyl]-3-yl)methoxy)benzyl)amino)-3-hydroxypropanoic Acid], the IC50 lay within 0.00021 to 0.01 µM.
On to `Cc1c(COc2cc(OCc3cncc(C#N)c3)c(CN[C@@](C)(CO)C(=O)O)cc2Cl)cccc1-c1cccc(OCCCN2CC[C@@H](O)C2)c1` [Example 1017, (S)-2-((5-chloro-2-((5-cyanopyridin-3-yl)methoxy)-4-((3′-(3-((R)-3-hydroxypyrrolidin-1-yl)propoxy)-2-methyl-[1,1′-biphenyl]-3-yl)methoxy)benzyl)amino)-3-hydroxy-2-methylpropanoic Acid], for which the IC50 lay within 0.00021 to 0.01 µM.
Regarding `Cc1c(COc2cc(OCc3cncc(C#N)c3)c(CN3CCCC[C@H]3C(=O)O)cc2Cl)cccc1-c1cccc(OCCCN2CCC[C@@H](O)C2)c1` [Example 1018, (S)-1-(5-chloro-2-((5-cyanopyridin-3-yl)methoxy)-4-((3′-(3-((R)-3-hydroxypiperidin-1-yl)propoxy)-2-methyl-[1,1′-biphenyl]-3-yl)methoxy)benzyl)piperidine-2-carboxylic Acid], the IC50 is 0.00021 to 0.01 µM.
In the case of `Cc1c(COc2cc(OCc3cncc(C#N)c3)c(CN3CCCC[C@H]3C(=O)O)cc2Cl)cccc1-c1cccc(OCCCN2CCC[C@H](O)C2)c1` [Example 1019, (S)-1-(5-chloro-2-((5-cyanopyridin-3-yl)methoxy)-4-((3′-(3-((S)-3-hydroxypiperidin-1-yl)propoxy)-2-methyl-[1,1′-biphenyl]-3-yl)methoxy)benzyl)piperidine-2-carboxylic Acid] it was 0.00021 to 0.01 µM.
Regarding `C=CC(=O)NCCCOc1cccc(-c2cccc(COc3cc(OCc4cncc(C#N)c4)c(CN4CCCC[C@H]4C(=O)O)cc3Cl)c2C)c1` [Example 1020, (S)-1-(4-((3′-(3-acrylamidopropoxy)-2-methyl-[1,1′-biphenyl]-3-yl)methoxy)-5-chloro-2-((5-cyanopyridin-3-yl)methoxy)benzyl)piperidine-2-carboxylic Acid], the IC50 fell in the range of 0.01 to 0.1 µM.
For `C=CC(=O)NCCCOc1cccc(-c2cccc(COc3cc(OCc4cncc(C#N)c4)c(CN[C@H](CO)C(=O)O)cc3Cl)c2C)c1` [Example 1021, (R)-2-((4-((3′-(3-acrylamidopropoxy)-2-methyl-[1,1′-biphenyl]-3-yl)methoxy)-5-chloro-2-((5-cyanopyridin-3-yl)methoxy)benzyl)amino)-3-hydroxypropanoic Acid] the value was 0.00021 to 0.01 µM; for `Cc1c(COc2cc(OCc3cncc(S(C)(=O)=O)c3)c(CN3CCCC[C@H]3C(=O)O)cc2Cl)cccc1-c1cccc(OCCCN2CC[C@@H](O)C2)c1` [Example 1022, (S)-1-(5-chloro-4-((3′-(3-((R)-3-hydroxypyrrolidin-1-yl)propoxy)-2-methyl-[1,1′-biphenyl]-3-yl)methoxy)-2-((5-(methylsulfonyl)pyridin-3-yl)methoxy)benzyl)piperidine-2-carboxylic Acid], 0.00021 to 0.01 µM; for `Cc1c(COc2cc(OCc3cncc(S(C)(=O)=O)c3)c(CN[C@H](CO)C(=O)O)cc2Cl)cccc1-c1cccc(OCCCN2CC[C@@H](O)C2)c1` [Example 1023, (R)-2-((5-chloro-4-((3′-(3-((R)-3-hydroxypyrrolidin-1-yl)propoxy)-2-methyl-[1,1′-biphenyl]-3-yl)methoxy)-2-((5-(methylsulfonyl)pyridin-3-yl)methoxy)benzyl)amino)-3-hydroxypropanoic Acid], 0.00021 to 0.01 µM.
For the molecule `Cc1c(COc2cc(OCc3cncc(S(C)(=O)=O)c3)c(CN[C@@](C)(CO)C(=O)O)cc2Cl)cccc1-c1cccc(OCCCN2CC[C@@H](O)C2)c1` [Example 1024, (S)-2-((5-chloro-4-((3′-(3-((R)-3-hydroxypyrrolidin-1-yl)propoxy)-2-methyl-[1,1′-biphenyl]-3-yl)methoxy)-2-((5-(methylsulfonyl)pyridin-3-yl)methoxy)benzyl)amino)-3-hydroxy-2-methylpropanoic Acid], the IC50 was 0.00021 to 0.01 µM.
In the case of `Cc1c(COc2cc(OCc3cncc(S(C)(=O)=O)c3)c(CN[C@H](CO)C(=O)O)cc2Cl)cccc1-c1cccc(OCCCN2CC[C@@H](O)C2)c1C` [Example 1025, (R)-2-((5-chloro-4-((3′-(3-((R)-3-hydroxypyrrolidin-1-yl)propoxy)-2,2′-dimethyl-[1,1′-biphenyl]-3-yl)methoxy)-2-((5-(methylsulfonyl)pyridin-3-yl)methoxy)benzyl)amino)-3-hydroxypropanoic Acid], the IC50 was in the range of 0.00021 to 0.01 µM.
On to `Cc1c(COc2cc(OCc3cncc(S(C)(=O)=O)c3)c(CN[C@](C)(CO)C(=O)O)cc2Cl)cccc1-c1cccc(OCCCN2CC[C@@H](O)C2)c1C` [Example 1026, (R)-2-((5-chloro-4-((3′-(3-((R)-3-hydroxypyrrolidin-1-yl)propoxy)-2,2′-dimethyl-[1,1′-biphenyl]-3-yl)methoxy)-2-((5-(methylsulfonyl)pyridin-3-yl)methoxy)benzyl)amino)-3-hydroxy-2-methylpropanoic Acid], for which the IC50 is 0.00021 to 0.01 µM.
For `Cc1c(COc2cc(OCc3cncc(S(C)(=O)=O)c3)c(CN3CCCC[C@H]3C(=O)O)cc2Cl)cccc1-c1cccc(OCCCN2CC[C@@H](O)C2)c1C` [Example 1027, (S)-1-(5-chloro-4-((3′-(3-((R)-3-hydroxypyrrolidin-1-yl)propoxy)-2,2′-dimethyl-[1,1′-biphenyl]-3-yl)methoxy)-2-((5-(methylsulfonyl)pyridin-3-yl)methoxy)benzyl)piperidine-2-carboxylic Acid] the value was 0.00021 to 0.01 µM; for `COC(=O)C1(O)CCN(CCCOc2cccc(-c3cccc(COc4cc(OCc5cncc(C#N)c5)c(CN[C@H](CO)C(=O)O)cc4Cl)c3C)c2)CC1` [Example 1028, (R)-2-((5-chloro-2-((5-cyanopyridin-3-yl)methoxy)-4-((3′-(3-(4-hydroxy-4-(methoxycarbonyl)piperidin-1-yl)propoxy)-2-methyl-[1,1′-biphenyl]-3-yl)methoxy)benzyl)amino)-3-hydroxypropanoic Acid], 0.00021 to 0.01 µM.
Regarding `COC(=O)C1(O)CCN(CCCOc2cccc(-c3cccc(COc4cc(OCc5cncc(C#N)c5)c(CN[C@H](CO)C(=O)O)cc4Cl)c3C)c2C)CC1` [Example 1029, (R)-2-((5-chloro-2-((5-cyanopyridin-3-yl)methoxy)-4-((3′-(3-(4-hydroxy-4-(methoxycarbonyl)piperidin-1-yl)propoxy)-2,2′-dimethyl-[1,1′-biphenyl]-3-yl)methoxy)benzyl)amino)-3-hydroxypropanoic Acid], the IC50 lay in the range of 0.00021 to 0.01 µM.
For `COC(=O)C1(O)CCN(CCCOc2cccc(-c3cccc(COc4cc(OCc5cncc(C#N)c5)c(CN[C@](C)(CO)C(=O)O)cc4Cl)c3C)c2C)CC1` [Example 1030, (R)-2-((5-chloro-2-((5-cyanopyridin-3-yl)methoxy)-4-((3′-(3-(4-hydroxy-4-(methoxycarbonyl)piperidin-1-yl)propoxy)-2,2′-dimethyl-[1,1′-biphenyl]-3-yl)methoxy)benzyl)amino)-3-hydroxy-2-methylpropanoic Acid], the IC50 lay within 0.00021 to 0.01 µM.
For `C=CC(=O)NCCNCc1cc(Cl)c(OCc2cccc(-c3cccc(OCCCN4CC[C@@H](O)C4)c3C)c2C)cc1OCc1cncc(C#N)c1` [Example 1031, (R)—N-(2-((5-chloro-2-((5-cyanopyridin-3-yl)methoxy)-4-((3′-(3-(3-hydroxypyrrolidin-1-yl)propoxy)-2,2′-dimethyl-[1,1′-biphenyl]-3-yl)methoxy)benzyl)amino)ethyl)acrylamide] the value was 0.01 to 0.1 µM; for `Cc1c(COc2cc(OCc3cncc(C(N)=O)c3)c(CN[C@H](CO)C(=O)O)cc2Cl)cccc1-c1cccc(OCCCN2CCC(O)(C(=O)O)CC2)c1` [Example 1032, (R)-1-(3-((3′-((5-((5-carbamoylpyridin-3-yl)methoxy)-4-(((1-carboxy-2-hydroxyethyl)amino)methyl)-2-chlorophenoxy)methyl)-2′-methyl-[1,1′-biphenyl]-3-yl)oxy)propyl)-4-hydroxypiperidine-4-carboxylic Acid], 0.00021 to 0.01 µM; for `Cc1c(COc2cc(OCc3cncc(C#N)c3)c(CN[C@H](CO)C(=O)O)cc2Cl)cccc1-c1cccc(OCCCN2CCC(O)(C(=O)O)CC2)c1` [Example 1033, (R)-1-(3-((3′-((4-(((1-carboxy-2-hydroxyethyl)amino)methyl)-2-chloro-5-((5-cyanopyridin-3-yl)methoxy)phenoxy)methyl)-2′-methyl-[1,1′-biphenyl]-3-yl)oxy)propyl)-4-hydroxypiperidine-4-carboxylic Acid], 0.00021 to 0.01 µM.
